The values below are quoted from earlier work in patent US6667408B2, “Process for preparing cyclic polyethers” (Japan Science and Technology Corporation, priority 2000, dated 2003).

The subject of this data set is mice. The settings on record: i.p.

SMILES strings stand for the structures.

As to `C=CC/C=C\C=C/[C@H]1O[C@H]2C[C@H]3O[C@H]4CC[C@H]5O[C@H]6C[C@@]7(C)O[C@@]8(C)[C@@H](O)C[C@H](CCCO)O[C@@H]8C[C@@H]7O[C@@H]6C[C@@H]5O[C@]4(C)C[C@]3(C)O[C@@H]2C=C[C@]1(C)O` [gambierol], the median lethal dose (LD50) is 50 µg/kg.

Broadly, the LD50 is the dose expected to kill half of the subjects tested.
